The record followed here is patent US7041662B2, “Substituted benzo [b] azepin-2-one compounds” (Grunenthal GmbH, priority 2002, dated 2006).

This test relates to phenylquinone-induced writhing reactions. Nature of the test: phenylquinone-induced writhing in mice. The class given is in vivo. The following applies: male NMRI mice, phenylquinone i.p. 10 minutes after compound, writhing counted 5-20 minutes after phenylquinone. Here is the method: The investigation into analgesic efficacy was performed by phenylquinone-induced writhing in mice (modified after: I. C. Hendershot, J. Forsaith, J. Pharmacol. Exp. There. 125, 237–240 (1959)). The corresponding literature description is hereby introduced as a reference and is deemed to be part of the disclosure.
Male NMRI mice weighing from 25 to 30 g were used for this purpose. Groups of 10 animals per substance dose received, 10 minutes after intravenous administration of the compounds tested, 0.3 ml/mouse of a 0.02% aqueous solution of phenylquinone (phenylbenzoquinone, Sigma, Deisenhofen; solution prepared with addition of 5% of ethanol and stored in a water bath at 45° C.) administered intraperitoneally. The animals were placed individually in observation cages. A push button counter was used to record the number of pain-induced stretching movements (writhing reactions=straightening of the torso with stretching of the rear extremities) for 5–20 minutes after phenylquinone administration. The control was provided by animals who received only physiological common salt solution.
The compounds were tested at the standard dosage of 10 mg/kg. Inhibition of the writhing reactions by a substance was calculated according to the following formula: […]
The in-depth investigation into analgesic efficacy was performed using phenylquinone-induced writhing in mice, as described above.

The structures appear in SMILES notation.

`COc1cccc(C2(O)CCC(OC(=O)CC3=CCC(=O)N(C)c4cc(Cl)ccc43)CC2CN(C)C)c1` (stereo not drawn) [Example 4, 2′-(8-chloro-1-methyl-2-oxo-2,3-dihydro-1H-benzo[b]azepin-5-yl) acetic acid [3″-(N,N-dimethylaminomethyl)-4″-hydroxy-4″-(m-methoxyphenyl)cyclohexyl]ester]: the “% inhibition of writhing reactions 10 mg/kg i.v.” value (shortened to “% inhibition”) is 39%. As for `COc1cccc(C2(O)CCC(NC(=O)CC3=CCC(=O)N(C)c4cc(Cl)ccc43)CC2CN(C)C)c1` (stereo not drawn) [Example 6, 2′-(8-chloro-1-methyl-2-oxo-2,3-dihydro-1H-benzo[b]azepin-5-yl)-N-[3″-(N,N-dimethylaminomethyl)-4″-hydroxy-4″-(m-methoxyphenyl)cyclohexyl]acetamide], the “% inhibition” value is 25%. On to `COc1cccc(C2(O)CCC(OC(=O)CC3=CCC(=O)Nc4cc(Cl)ccc43)CC2CN(C)C)c1` (stereo not drawn) [Example 5, 2′-(8-chloro-2-oxo-2,3-dihydro-1H-benzo[b]azepin-5-yl) acetic acid [3″-(N,N-dimethylaminomethyl)-4″-hydroxy-4″-(m-methoxyphenyl)cyclohexyl]ester], for which the “% inhibition” value came to 63%.
